Source: paper PMC12163317, “The food effect on the pharmacokinetics of TQB3616 capsule in Chinse healthy subjects: a randomized, open-label, single-center, two-period, two-sequence crossover phase I clinical trial” (Frontiers in Pharmacology, 2025)

Assays:
[1] = Food effect on pharmacokinetics of TQB3616 capsule, crossover phase I trial, plasma concentration by LC-MS/MS; assay type: in vivo, human; conditions: for AUC_Extrap / t1/2 / λZ / AUC0-t / AUC0-∞ / Cmax: mean ± SD; for AUC0-t / AUC0-∞ / Cmax / Tmax: single oral 180 mg; for Tmax: median (min, max)
Protocol: This was a randomized, open-label, single-center, two-period, two-sequence crossover early phase I clinical trial to evaluate the food effect on the pharmacokinetics of TQB3616 capsules in healthy subjects. The trial was conducted at Affiliated Hospital of Changchun University of Chinese Medicine and the protocol was approved by the Ethics Committee of the Affiliated Hospital of Changchun University of Chinese Medicine (CCZYFYLL 2021-006). The ethical approval process of this study complied with the requirements of Good Clinical Practice (GCP), the Declaration of Helsinki and the relevant domestic laws and regulations. All subjects had provided written informed consent before the study.
Subjects were admitted to the research center 2 days prior to drug administration and randomly assigned to either Group A or Group B at a 1:1 ratio. Group A, subjects received the study drug under fasted condition in period one and under fed condition in period 2. Conversely, in Group B, subjects received the study drug under fed conditions in the first period and under fasting conditions in the second period. The study employed a crossover design, with a washout period of at least 19 days between the two treatment periods.
The study protocol mandated that subjects take the medication after an overnight fast lasting at least 10 h. In a fasted condition, subjects consumed a 180 mg TQB3616 capsule with 240 mL of warm water, ensuring they remained and fasted for an additional 4 h post-dose. In a fed condition, subjects consumed a 180 mg TQB3616 capsule with 240 mL of warm water after consuming a high-fat, high-calorie breakfast (approximately 800–1,000 kcal, Supplementary table) 30 min prior to adminstration, subjects began their breakfast and completed the meal within the next 30 min. Capsules were swallowed whole without chewing.
Pharmacokinetic (PK) samples were collected at specific times: 0 h (within 60 min prior to dosing), 1 h, 2 h, 4 h, 5 h, 5.5 h, 6 h, 6.5 h, 7 h, 7.5 h, 8 h, 12 h, 24 h, 48 h, 72 h, 120 h, 168 h and 264 h post-dosing, totaling 18 sampling points. At each scheduled time, approximately 3 mL of blood was collected with a pre-chilled EDTA-K2 tubes. After gentle 180° inversion (×4) for homogenization, samples were immediately transferred to an ice bath. All blood specimens were centrifuged at 3,500 rpm for 10 min within 30 min of collection. The obtained plasma was aliquoted and stored at −80°C ± 10°C until batch analysis.
(§1) Plasma concentrations of TQB3616 were quantified using a validated liquid chromatography-tandem mass spectrometry (LC-MS/MS) method. Calibration standards and quality control samples (K2-EDTA plasma matrix) were prepared using [D8]-TQB3616 as the internal standard. Protein precipitation extraction from 100 μL plasma was performed followed by chromatographic separation on a C18 column (50 × 2.1 mm, 1.7 μm). Mass transitions m/z 447.1→431.3 (TQB3616) and m/z 455.2→439.3 (IS) were monitored for quantification.
Phoenix WinNonlin (version 8.3.4) was used to calculate pharmacokinetic parameters, including: […] (Tmax), area under the curve (AUC) from time zero to the last measurable concentration (AUC0-t), AUC from time zero to observed infinity (AUC0- ∞ ), peak concentration (Cmax),terminal half-life of analyte in plasma (t1/2), terminal rate constant (λz), and extrapolated AUC percentage (AUCextrp (%)). Other statistical analyses were performed using SAS (version 9.4). All tests were considered statistically significant at p < 0.05.
Based on the Pharmacokinetics Parameter Set (PKPS), main parameters were summarized by fasting/fed groups using sample size, arithmetic mean, standard deviation, coefficient of variation, median, minimum, maximum, as well as geometric mean and geometric coefficient of variation.
For the food-effect equivalence analysis set (BES), a mixed-effects model analyzed natural log-transformed Cmax, AUC0-t, and AUC0- ∞ . […]

[2] = Safety analysis, adverse events (CTCAE version 5.0) in the food-effect trial; assay type: in vivo, human
From the text: The safety analysis utilized the safety data set (SS), comprising all subjects receiving TQB3616 with recorded safety assessments. The safety assessments indicators included adverse events, serious adverse events, laboratory tests (routine blood, blood biochemistry, urinalysis, and coagulation), vital signs ([…]), 12-lead electrocardiogram, and physical examination. The frequency, type, extent, and comorbid medications of all treatment-emergent adverse events (TEAEs) occurring during treatment were recorded systematically documented. For severity, adverse events were rated and documented using the National Cancer Institute-Common Terminology Criteria for Adverse Events (CTCAE) version 5.0. The Medical Dictionary for Regulatory Activities (MedDRA) was used to encode the classification of adverse events. Any adverse events observed during the trial were monitored until resolution, return to baseline levels, or stabilization the subject’s condition.

[3] = Stability of TQB3616 in LC-MS/MS method validation (K2-EDTA plasma matrix); assay type: in vitro ADME
Protocol: as §1
This study undertook a comprehensive validation of the LC-MS/MS methodology for quantifying TQB3616. The validated quantitative range for TQB3616 was established between 0.3 ng/mL and 300 ng/mL. […] Sample dilution integrity was confirmed at 20-fold dilution.

[4] = design: method as in unpublished data; conditions: ref unpublished data, cited from earlier work
CDK4/6 = system: CDK4/6; design: method as in unpublished data; conditions: preclinical; ref unpublished data; cited from earlier work
[5] = system: HR+/HER2-breast cancer MCF-7 cells; design: method as in unpublished data; conditions: in vitro; ref unpublished data; cited from earlier work
MCF-7 tumor = system: MCF-7 tumor; design: method as in unpublished data; conditions: ref unpublished data, cited from earlier work
[6] = design: method as in unpublished data; conditions: ref unpublished data; cited from earlier work
[7] = coefficient of variation, equivalence analysis fed vs fasted
[8] = both periods, 16 subjects in safety set

Question: Which results are given for CC(C)c1c2cc(-c3nc(Nc4ccc(N5CCNCC5)cn4)ncc3F)ccc2nn1C [TQB3616]?
Answer: AUC_Extrap ([1]; Fasted (n = 11)): 7.57 ± 3.29%; t1/2 ([1]; Fasted (n = 11)): 71.27 ± 11.83 h; λZ ([1]; Fasted (n = 11)): 0.01 ± 0.002 h⁻¹; AUC0-t ([1]; Fasted (n = 11)): 3,634.80 ± 2,174.18 h ^a ng/mL; AUC0-∞ ([1]; Fasted (n = 11)): 3,920.86 ± 2,325.20 h ^a ng/mL; Cmax ([1]; Fasted (n = 11)): 60.39 ± 37.17 ng/mL; Tmax ([1]; Fasted (n = 11)): 6.0 (5.0, 24.0) h; AUC0-t GeoMean ([1]; Fasted, n = 11): 3,303.72 h*ng/mL; AUC0-∞ GeoMean ([1]; Fasted, n = 11): 3,584.79 h*ng/mL; Cmax GeoMean ([1]; Fasted, n = 11): 48.47 ng/mL; AUC_Extrap ([1]; Fed (n = 13)): 6.97 ± 2.90%; t1/2 ([1]; Fed (n = 13)): 68.95 ± 10.68 h; λZ ([1]; Fed (n = 13)): 0.01 ± 0.002 h⁻¹; AUC0-t ([1]; Fed (n = 13)): 5305.30 ± 1948.11 h ^a ng/mL; AUC0-∞ ([1]; Fed (n = 13)): 5710.59 ± 2,100.68 h ^a ng/mL; Cmax ([1]; Fed (n = 13)): 75.39 ± 28.34 ng/mL; Tmax ([1]; Fed (n = 13)): 7.0 (7.0, 12.0) h; AUC0-t GeoMean ([1]; Fed, n = 13): 4792.51 ng·h/mL; AUC0-∞ GeoMean ([1]; Fed, n = 13): 5130.98 ng·h/mL; Cmax GeoMean ([1]; Fed, n = 13): 71.76 ng/mL; AUC0-t CV [1, 7]: 26.51%; AUC0-∞ CV [1, 7]: 26.07%; Cmax CV [1, 7]: 53.42%; AUC0-t Fed/Fasted Ratio (geometric mean ratio) ([1]; fasted as the reference): 145.06%; AUC0-∞ Fed/Fasted Ratio (geometric mean ratio) ([1]; fasted as the reference): 143.13%; Cmax Fed/Fasted Ratio (geometric mean ratio) ([1]; fasted as the reference): 148.04%; AUC0-t ([1]; fasting): 3,634.80 ± 2,174.18 h·ng/mL; AUC0-∞ ([1]; fasting): 3,920.86 ± 2,325.20 h·ng/mL; increase of AUC0-t by food intake ([1]; fed compared with fasted): 45.95%; increase of AUC0-∞ by food intake ([1]; fed compared with fasted): 45.65%; rise in AUC with a meal ([1]; fed compared with fasted): 45%; AUC0-t ([1]; fed): 5305.30 ± 1948.11 ng·h/mL; AUC0-∞ ([1]; fed): 5710.59 ± 2,100.68 h·ng/mL; postprandial increase in AUC ([1]; females): 69.9%; postprandial increase in Cmax ([1]; females): 33.5%; postprandial increase in AUC ([1]; males): 38.2%; postprandial increase in Cmax ([1]; males): 20.9%; TEAE Abdominal discomfort, n (%) ([2]; Fasted): 7.42%; TEAE Abdominal pain, n (%) ([2]; Fasted): 4.94%; TEAE Blood bilirubin increased, n (%) ([2]; Fasted): 1.23%; TEAE Blood triglycerides increased, n (%) ([2]; Fasted): 7.42%; TEAE Diarrhea, n (%) ([2]; Fasted): 13.58%; TEAE Nausea, n (%) ([2]; Fasted): 7.42%; TEAE Protein total decreased, n (%) ([2]; Fasted): 1.23%; TEAE Thrombocyte count decreased, n (%) ([2]; Fasted): 1.23%; TEAE White blood cells urine positive, n (%) ([2]; Fasted): 2.47%; TEAE emesis, n (%) ([2]; Fasted): 6.17%; TEAE laboratory tests, n (%) ([2]; Fasted): 13.58%; TEAE Abdominal discomfort, n (%) ([2]; Fed): 11.11%; TEAE Abdominal pain, n (%) ([2]; Fed): 2.47%; TEAE Blood bilirubin increased, n (%) ([2]; Fed): 1.23%; TEAE Blood bilirubin unconjugated increased, n (%) ([2]; Fed): 1.23%; TEAE Blood triglycerides increased, n (%) ([2]; Fed): 4.94%; TEAE Diarrhea, n (%) ([2]; Fed): 12.35%; TEAE Gastrointestinal Disorders, n (%) ([2]; Fed): 33.33%; TEAE Head discomfort, n (%) ([2]; Fed): 1.23%; TEAE Nausea, n (%) ([2]; Fed): 3.7%; TEAE Nervous System Disorders, n (%) ([2]; Fed): 1.23%; TEAE Protein total decreased, n (%) ([2]; Fed): 1.23%; TEAE Red blood cells urine positive, n (%) ([2]; Fed): 1.23%; TEAE Urinary occult blood positive, n (%) ([2]; Fed): 2.47%; TEAE emesis, n (%) ([2]; Fed): 3.7%; adverse events related to the drug ([2]; both periods): 77; drug-related adverse events of grade II ([2]; both periods): two; serious adverse events, deaths, unexpected serious adverse reactions ([2]; both periods): No serious adverse events, deaths, or unexpected serious adverse reactions occurred; subjects with adverse events [2, 8]: 16; total adverse events (AEs) [2, 8]: 81; average time to spontaneous resolution of gastrointestinal reactions ([2]; fasted period (range: 0–10 h)): 3.2 h; average time of occurrence of gastrointestinal reactions post-dosing ([2]; fasted period (range: 1.7–7.3 h)): 4.2 h; average time to spontaneous resolution of gastrointestinal reactions ([2]; fed period (range: 0–9.8 h)): 2.2 h; average time of occurrence of gastrointestinal reactions post-dosing ([2]; fed period (range: 2.1–8.4 h)): 4.3 h; freeze-thaw stability ([3]; method validation): endured four freeze-thaw cycles; stability at room temperature ([3]; method validation): at least 23.5 h; long-term stability ([3]; −20°C): 89 days; long-term stability ([3]; −80°C): 89 days; time to steady-state plasma concentrations ([4]; continuous dosing): approximately 7 days; exposure increase with dose escalation ([4]; dose range 20–150 mg, single administration): exposure increase ratio slightly exceeding the dose increase ratio; inhibition of CDK4/6 kinase activity (CDK4/6): potent inhibitory effects; inhibition of proliferation of MCF-7 cells [5]: selectively inhibits proliferation; anti-tumor efficacy compared with Palbociclib (MCF-7 tumor; human MCF-7 xenograft model): comparable anti-tumor efficacy to Palbociclib at reduced dosage levels; MCF-7 tumor growth (MCF-7 tumor; in vivo): suppresses MCF-7 tumor growth in vivo; preclinical toxicity findings [6]: gastrointestinal toxicity and hematological/serum biochemical abnormalities were observed at medium-to-high dose levels
